IC50 data for 30 compounds are collected here from patent US11358952B2, “Substituted 4-aminoisoindoline-1,3-dione compounds, compositions thereof, and methods of treatment therewith” (Celgene Corporation, priority 2018, dated 2022).

pIC50: −log10 of the molar value.

The subject of the experiment is SU-DHL-4 cell line. Put plainly: SU-DHL-4 cell proliferation assay (Cell Titer-Glo viability). It counts as cell-based. The conditions noted are these: Homo sapiens; cell viability IC50 activity level, DLBCL cell line SU-DHL-4, 120 hours post-treatment; read-out: SU-DHL-4 Act. A digest of the protocol: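 SU-DHL-4 cells (500/well, RPMI-1640 + 10% FBS) exposed to 20-point compound dilutions (0.5 nM–10 μM, 0.1% DMSO) for 120 h at 37°C, 5% CO2. Viability measured by Cell Titer-Glo luminescence at t0 and at 120 h. IC50 is the concentration giving 50% of DMSO control, from a four-parameter logistic fit.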
On to `O=C1CCC(N2C(=O)c3cccc(NCc4ccc(CN5CCC6(CCNC6=O)CC5)cc4F)c3C2=O)C(=O)N1` (stereo not drawn) [Cpd 150, 2-(2,6-dioxopiperidin-3-yl)-4-(2-fluoro-4-((1-oxo-2,8-diazaspiro[4.5]decan-8-yl)methyl)benzylamino)isoindoline-1,3-dione], for which the pIC50 is over 6.70.

Take `C[C@@H]1CN(C2CN(Cc3ccc(CNc4cccc5c4C(=O)N(C4CCC(=O)NC4=O)C5=O)c(F)c3)C2)C[C@H](C)O1` (stereo partly drawn) [Cpd 222, 4-(4-((3-((2R,6S)-2,6-dimethylmorpholino)azetidin-1-yl)methyl)-2-fluorobenzylamino)-2-(2,6-dioxopiperidin-3-yl)isoindoline-1,3-dione]: the pIC50 was 6.30 to 6.70.

As to `CC1(C)CCN(Cc2ccc(CNc3cccc4c3C(=O)N(C3CCC(=O)NC3=O)C4=O)cc2)CC1` (stereo not drawn) [Cpd 36, 4-(4-((4,4-dimethylpiperidin-1-yl)methyl)benzylamino)-2-(2,6-dioxopiperidin-3-yl)isoindoline-1,3-dione], the pIC50 was 6.30 to 6.70.

For `CC1(C)CCC2(CCN(Cc3ccc(CNc4cccc5c4C(=O)N(C4CCC(=O)NC4=O)C5=O)cc3)CC2)O1` (stereo not drawn) [Cpd 129, 4-(4-((2,2-dimethyl-1-oxa-8-azaspiro[4.5]decan-8-yl)methyl)benzylamino)-2-(2,6-dioxopiperidin-3-yl)isoindoline-1,3-dione], the pIC50 was over 6.70.

Take `Cc1cc(CN2CCN(C(C)(C)C)CC2)ccc1CNc1cccc2c1C(=O)N(C1CCC(=O)NC1=O)C2=O` (stereo not drawn) [Cpd 97, 4-(4-((4-tert-butylpiperazin-1-yl)methyl)-2-methylbenzylamino)-2-(2,6-dioxopiperidin-3-yl)isoindolline-1,3-dione]: the pIC50 is 6.12 to 6.30.

On to `O=C1CCC(N2C(=O)c3cccc(NCc4ccc(CN5CCC(n6cccn6)CC5)cc4F)c3C2=O)C(=O)N1` (stereo not drawn) [Cpd 107, 4-(4-((4-(1H-pyrazol-1-yl)piperidin-1-yl)methyl)-2-fluorobenzylamino)-2-(2,6-dioxopiperidin-3-yl)isoindoline-1,3-dione], for which the pIC50 was over 6.70.

`Cc1cc(CNc2cccc3c2C(=O)N(C2CCC(=O)NC2=O)C3=O)ccc1CN1CC2(CCCO2)C1` (stereo not drawn) [Cpd 232, 4-(4-(5-oxa-2-azaspiro[3.4]octan-2-ylmethyl)-3-methylbenzylamino)-2-(2,6-dioxopiperidin-3-yl)isoindoline-1,3-dione]: the pIC50 was over 6.70.

On to `Cc1cc(CNc2cccc3c2C(=O)N(C2CCC(=O)NC2=O)C3=O)ccc1CN1CCC2(COC2)C1` (stereo not drawn) [Cpd 229, 4-(4-(2-oxa-6-azaspiro[3.4]octan-6-ylmethyl)-3-methylbenzylamino)-2-(2,6-dioxopiperidin-3-yl)isoindoline-1,3-dione], for which the pIC50 was 6.12 to 6.30.

Regarding `CC(C)C1CCN(Cc2ccc(CNc3cccc4c3C(=O)N(C3CCC(=O)NC3=O)C4=O)cc2)CC1` (stereo not drawn) [Cpd 5, 2-(2,6-dioxopiperidin-3-yl)-4-(4-((4-isopropylpiperidin-1-yl)methyl)benzylamino)isoindoline-1,3-dione], the pIC50 was over 6.70.

Take `CCS(=O)(=O)N1CCN(Cc2ccc(CNc3cccc4c3C(=O)N(C3CCC(=O)NC3=O)C4=O)c(F)c2)CC1` (stereo not drawn) [Cpd 160, 2-(2,6-dioxopiperidin-3-yl)-4-(4-((4-(ethylsulfonyl)piperazin-1-yl)methyl)-2-fluorobenzylamino)isoindoline-1,3-dione]: the pIC50 is over 6.70.

For the compound `NC(=O)c1ccc(N2CCN(Cc3ccc(CNc4cccc5c4C(=O)N(C4CCC(=O)NC4=O)C5=O)c(F)c3)CC2)cc1` (stereo not drawn) [Cpd 139, 4-(4-(4-((2-(2,6-dioxopiperidin-3-yl)-1,3-dioxoisoindolin-4-ylamino)methyl)-3-fluorobenzyl)piperazin-1-yl)benzamide], the pIC50 was over 6.70.

For `NC(=O)c1cc(N2CCN(Cc3ccc(CNc4cccc5c4C(=O)N(C4CCC(=O)NC4=O)C5=O)cc3)CC2)ccn1` (stereo not drawn) [Cpd 189, 4-(4-(4-((2-(2,6-dioxopiperidin-3-yl)-1,3-dioxoisoindolin-4-ylamino)methyl)benzyl)piperazin-1-yl)picolinamide], the pIC50 was 6.30 to 6.70.

`NC(=O)c1ncccc1N1CCN(Cc2ccc(CNc3cccc4c3C(=O)N(C3CCC(=O)NC3=O)C4=O)c(F)c2)CC1` (stereo not drawn) [Cpd 180, 3-(4-(4-((2-(2,6-dioxopiperidin-3-yl)-1,3-dioxoisoindolin-4-ylamino)methyl)-3-fluorobenzyl)piperazin-1-yl)picolinamide]: the pIC50 is 6.30 to 6.70.

Turning to `Cc1cc(CNc2cccc3c2C(=O)N(C2CCC(=O)NC2=O)C3=O)ccc1CN1CCC(OC(C)(C)C)CC1` (stereo not drawn) [Cpd 87, 4-(4-((4-tert-butoxypiperidin-1-yl)methyl)-3-methylbenzylamino)-2-(2,6-dioxopiperidin-3-yl)isoindoline-1,3-dione], the pIC50 is over 6.70.

With `CC(C)(C)OC1CCN(Cc2ccc(CNc3cccc4c3C(=O)N(C3CCC(=O)NC3=O)C4=O)c(F)c2)CC1` (stereo not drawn) [Cpd 143, 4-(4-((4-tert-butyoxypiperidin-1-yl)methyl)-2-fluorobenzylamino)-2-(2,6-dioxopiperidin-3-yl)isoindoline-1,3-dione], the pIC50 is over 6.70.

As for `O=C1CCC(N2C(=O)c3cccc(NCc4ccc(CN5CCC(N6CCCS6(=O)=O)CC5)cc4F)c3C2=O)C(=O)N1` (stereo not drawn) [Cpd 172, 4-((4-((4-(1,1-dioxidoisothiazolidin-2-yl)piperidin-1-yl)methyl)-2-fluorobenzyl)amino)-2-(2,6-dioxopiperidin-3-yl)isoindoline-1,3-dione], the pIC50 was over 6.70.

Turning to `NC(=O)c1ccc(N2CCN(Cc3ccc(CNc4cccc5c4C(=O)N(C4CCC(=O)NC4=O)C5=O)cc3F)CC2)nc1` (stereo not drawn) [Cpd 152, 6-(4-(4-((2-(2,6-dioxopiperidin-3-yl)-1,3-dioxoisoindolin-4-ylamino)methyl)-2-fluorobenzyl)piperazin-1-yl)nicotinamide], the pIC50 is 6.12 to 6.30.

As for `NC(=O)c1ccc(N2CCN(Cc3ccc(CNc4cccc5c4C(=O)N(C4CCC(=O)NC4=O)C5=O)cc3)CC2)nc1` (stereo not drawn) [Cpd 54, 6-(4-(4-((2-(2,6-dioxopiperidin-3-yl)-1,3-dioxoisoindolin-4-ylamino)methyl)benzyl)piperazin-1-yl)nicotinamide], the pIC50 was 6.30 to 6.70.

For `CC(C)C1CN(Cc2ccc(CNc3cccc4c3C(=O)N(C3CCC(=O)NC3=O)C4=O)cc2)C1` (stereo not drawn) [Cpd 113, 2-(2,6-dioxopiperidin-3-yl)-4-(4-((3-isopropylazetidin-1-yl)methyl)benzylamino)isoindoline-1,3-dione], the pIC50 was 6.30 to 6.70.

`O=C1CCC(N2C(=O)c3cccc(NCc4ccc(CN5CC(N6CCCC6)C5)cc4)c3C2=O)C(=O)N1` (stereo not drawn) [Cpd 216, 2-(2,6-dioxopiperidin-3-yl)-4-(4-((3-(pyrrolidin-1-yl)azetidin-1-yl)methyl)benzylamino)isoindoline-1,3-dione]: the pIC50 is over 6.70.

As for `CCOC1(C)CCN(Cc2ccc(CNc3cccc4c3C(=O)N(C3CCC(=O)NC3=O)C4=O)c(F)c2)CC1` (stereo not drawn) [Cpd 158, 2-(2,6-dioxopiperidin-3-yl)-4-(4-((4-ethoxy-4-methylpiperidin-1-yl)methyl)-2-fluorobenzylamino)isoindoline-1,3-dione], the pIC50 is over 6.70.

In the case of `CCS(=O)(=O)N1CCN(Cc2ccc(CNc3cccc4c3C(=O)N(C3CCC(=O)NC3=O)C4=O)cc2F)CC1` (stereo not drawn) [Cpd 161, 2-(2,6-dioxopiperidin-3-yl)-4-(4-((4-(ethylsulfonyl)piperazin-1-yl)methyl)-3-fluorobenzylamino)isoindoline-1,3-dione], the pIC50 was over 6.70.

In the case of `Cc1cc(CNc2cccc3c2C(=O)N(C2CCC(=O)NC2=O)C3=O)ccc1CN1CCC(C2CCOCC2)CC1` (stereo not drawn) [Cpd 214, 2-(2,6-dioxopiperidin-3-yl)-4-(3-methyl-4-((4-(tetrahydro-2H-pyran-4-yl)piperidin-1-yl)methyl)benzylamino)isoindoline-1,3-dione], the pIC50 is over 6.70.

For `CN1CCC2(CCN(Cc3ccc(CNc4cccc5c4C(=O)N(C4CCC(=O)NC4=O)C5=O)cc3)CC2)C1=O` (stereo not drawn) [Cpd 122, 2-(2,6-dioxopiperidin-3-yl)-4-(4-((2-methyl-1-oxo-2,8-diazaspiro[4.5]decan-8-yl)methyl)benzylamino)isoindoline-1,3-dione], the pIC50 was 6.30 to 6.70.

Take `CCC1(O)CCN(Cc2ccc(CNc3cccc4c3C(=O)N(C3CCC(=O)NC3=O)C4=O)cc2)CC1` (stereo not drawn) [Cpd 88, 2-(2,6-dioxopiperidin-3-yl)-4-(4-((4-ethyl-4-hydroxypiperidin-1-yl)methyl)benzylamino)isoindoline-1,3-dione]: the pIC50 is 6.12 to 6.30.

Turning to `O=C1CCC(N2C(=O)c3cccc(NCc4ccc(CN5CCC(N6CCCC6=O)CC5)cc4F)c3C2=O)C(=O)N1` (stereo not drawn) [Cpd 170, 2-(2,6-dioxopiperidin-3-yl)-4-(2-fluoro-4-((4-(2-oxopyrrolidin-1-yl)piperidin-1-yl)methyl)benzylamino)isoindoline-1,3-dione], the pIC50 was over 6.70.

Turning to `O=C1CCC(N2C(=O)c3cccc(NCc4ccc(CN5CCN(c6cnccn6)CC5)cc4)c3C2=O)C(=O)N1` (stereo not drawn) [Cpd 185, 2-(2,6-dioxopiperidin-3-yl)-4-(4-((4-(pyrazin-2-yl)piperazin-1-yl)methyl)benzylamino)isoindoline-1,3-dione], the pIC50 was 6.30 to 6.70.

Regarding `Cn1cc(N2CCN(Cc3ccc(CNc4cccc5c4C(=O)N(C4CCC(=O)NC4=O)C5=O)cc3)CC2)cn1` (stereo not drawn) [Cpd 195, 2-(2,6-dioxopiperidin-3-yl)-4-(4-((4-(1-methyl-1H-pyrazol-4-yl)piperazin-1-yl)methyl)benzylamino)isoindoline-1,3-dione], the pIC50 is 6.30 to 6.70.

For the compound `CCOC1(C)CCN(Cc2ccc(CNc3cccc4c3C(=O)N(C3CCC(=O)NC3=O)C4=O)cc2)CC1` (stereo not drawn) [Cpd 89, 2-(2,6-dioxopiperidin-3-yl)-4-(4-((4-ethoxy-4-methylpiperidin-1-yl)methyl)benzylamino)isoindoline-1,3-dione], the pIC50 is over 6.70.

On to `N#Cc1cccc(C2CN(Cc3ccc(CNc4cccc5c4C(=O)N(C4CCC(=O)NC4=O)C5=O)c(F)c3)C2)c1` (stereo not drawn) [Cpd 121, 3-(1-(4-((2-(2,6-dioxopiperidin-3-yl)-1,3-dioxoisoindolin-4-ylamino)methyl)-3-fluorobenzyl)azetidin-3-yl)benzonitrile], for which the pIC50 is over 6.70.
